Results: ChEMBL document CHEMBL4765247, “Novel mouse GABA uptake inhibitors with enhanced inhibitory activity toward mGAT3/4 and their effect on pain threshold in mice” (Eur J Med Chem, 2020)

Experiments:
Assay type in all cases: cell-based
[1] = target: Sodium- and chloride-dependent GABA transporter 1 (Homo sapiens, UniProt P30531); assay: Inhibition of human […] expressed in tsA201 cells assessed as inhibition of [3H]GABA uptake by liquid scintillation method
[2] = target: T1, Sodium- and chloride-dependent betaine transporter (Homo sapiens, UniProt P48065); assay: Inhibition of human BGT1 expressed in tsA201 cells assessed as inhibition of [3H]GABA uptake by liquid scintillation method
T1 sequence (P48065 whole entry): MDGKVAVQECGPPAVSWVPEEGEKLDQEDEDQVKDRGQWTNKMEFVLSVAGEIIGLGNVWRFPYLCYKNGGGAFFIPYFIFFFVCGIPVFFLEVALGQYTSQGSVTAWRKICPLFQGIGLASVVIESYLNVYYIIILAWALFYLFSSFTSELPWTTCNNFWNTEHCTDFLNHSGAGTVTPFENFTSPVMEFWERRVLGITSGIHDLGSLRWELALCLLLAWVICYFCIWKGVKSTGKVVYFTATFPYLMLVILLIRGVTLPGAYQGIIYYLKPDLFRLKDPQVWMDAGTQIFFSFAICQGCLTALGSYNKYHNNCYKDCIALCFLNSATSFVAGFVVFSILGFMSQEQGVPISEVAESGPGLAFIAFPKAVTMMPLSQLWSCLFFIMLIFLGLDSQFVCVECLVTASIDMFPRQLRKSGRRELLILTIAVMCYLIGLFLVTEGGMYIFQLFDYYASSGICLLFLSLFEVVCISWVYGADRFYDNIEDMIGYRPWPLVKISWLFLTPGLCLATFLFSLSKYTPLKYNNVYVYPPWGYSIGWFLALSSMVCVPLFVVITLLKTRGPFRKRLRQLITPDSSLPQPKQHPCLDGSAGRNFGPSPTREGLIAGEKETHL

[3] = target: T2, Sodium- and chloride-dependent GABA transporter 2 (Homo sapiens, UniProt Q9NSD5); assay: Inhibition of human […] expressed in tsA201 cells assessed as inhibition of [3H]GABA uptake by liquid scintillation method
T2 sequence (Q9NSD5 whole entry): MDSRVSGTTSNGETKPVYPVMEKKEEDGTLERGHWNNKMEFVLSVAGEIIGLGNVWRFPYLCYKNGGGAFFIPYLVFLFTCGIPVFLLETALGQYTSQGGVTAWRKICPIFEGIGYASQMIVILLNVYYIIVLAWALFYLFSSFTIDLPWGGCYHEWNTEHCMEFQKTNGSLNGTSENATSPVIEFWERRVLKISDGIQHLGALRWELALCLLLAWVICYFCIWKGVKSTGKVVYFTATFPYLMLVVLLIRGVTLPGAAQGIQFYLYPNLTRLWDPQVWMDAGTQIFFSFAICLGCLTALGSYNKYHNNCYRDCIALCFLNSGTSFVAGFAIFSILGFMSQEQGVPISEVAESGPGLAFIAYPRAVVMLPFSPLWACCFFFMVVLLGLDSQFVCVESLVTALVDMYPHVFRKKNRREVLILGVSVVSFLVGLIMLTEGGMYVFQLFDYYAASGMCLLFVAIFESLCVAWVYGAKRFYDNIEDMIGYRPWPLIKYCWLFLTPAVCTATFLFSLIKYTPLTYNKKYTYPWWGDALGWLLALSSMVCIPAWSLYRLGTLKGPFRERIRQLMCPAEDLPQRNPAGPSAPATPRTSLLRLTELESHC

[4] = target: T3, Sodium- and chloride-dependent GABA transporter 3 (Homo sapiens, UniProt P48066); assay: Inhibition of human […] expressed in tsA201 cells assessed as inhibition of [3H]GABA uptake by liquid scintillation method
T3 sequence (P48066 whole entry): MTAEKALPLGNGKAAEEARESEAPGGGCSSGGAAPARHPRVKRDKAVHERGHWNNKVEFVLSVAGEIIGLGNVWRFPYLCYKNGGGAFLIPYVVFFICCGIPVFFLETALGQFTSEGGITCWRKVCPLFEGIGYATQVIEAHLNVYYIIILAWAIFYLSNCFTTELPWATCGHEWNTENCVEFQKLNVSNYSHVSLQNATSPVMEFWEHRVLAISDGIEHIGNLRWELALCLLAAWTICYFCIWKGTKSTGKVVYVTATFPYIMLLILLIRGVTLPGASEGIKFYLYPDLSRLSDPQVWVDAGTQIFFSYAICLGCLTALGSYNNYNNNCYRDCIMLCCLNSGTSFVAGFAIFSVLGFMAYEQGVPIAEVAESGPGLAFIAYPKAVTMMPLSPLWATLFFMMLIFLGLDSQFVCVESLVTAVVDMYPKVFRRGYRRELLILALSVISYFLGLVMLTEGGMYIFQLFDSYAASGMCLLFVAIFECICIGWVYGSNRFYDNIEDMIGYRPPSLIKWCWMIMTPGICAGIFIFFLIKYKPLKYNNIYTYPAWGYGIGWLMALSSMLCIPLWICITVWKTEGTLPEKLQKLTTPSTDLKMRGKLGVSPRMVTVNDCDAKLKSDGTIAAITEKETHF

Chain of Sodium- and chloride-dependent GABA transporter 1 (P30531 whole entry): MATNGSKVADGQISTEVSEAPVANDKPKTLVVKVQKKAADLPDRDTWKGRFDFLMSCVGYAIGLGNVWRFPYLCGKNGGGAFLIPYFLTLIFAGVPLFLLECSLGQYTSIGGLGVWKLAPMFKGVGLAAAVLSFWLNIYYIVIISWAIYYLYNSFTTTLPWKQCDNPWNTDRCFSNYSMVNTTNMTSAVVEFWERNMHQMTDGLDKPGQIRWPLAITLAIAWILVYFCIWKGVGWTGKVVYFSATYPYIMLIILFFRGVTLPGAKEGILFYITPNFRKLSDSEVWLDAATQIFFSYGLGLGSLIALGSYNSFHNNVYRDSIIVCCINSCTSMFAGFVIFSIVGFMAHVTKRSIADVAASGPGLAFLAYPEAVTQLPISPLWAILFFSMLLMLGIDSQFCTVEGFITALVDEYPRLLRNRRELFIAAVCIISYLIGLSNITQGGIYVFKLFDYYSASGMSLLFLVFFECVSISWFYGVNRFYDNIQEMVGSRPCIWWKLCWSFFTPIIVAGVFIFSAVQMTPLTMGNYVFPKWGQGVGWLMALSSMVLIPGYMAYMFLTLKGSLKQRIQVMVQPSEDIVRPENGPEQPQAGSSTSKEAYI

NCC(N)C(=O)O (centres undefined)
IC50 [1]: > 1000 µM | IC50 [2]: 631 µM | IC50 [3]: 39.8 µM | IC50 [4]: 31.6 µM
